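Step 1: Grow cells in 96-well plates. Step 2: Expose to compound for 48 hours at 5 concentrations. Step 3: Interpolate endpoints linearly; if unreached, use highest concentration. At the GI50, growth is halved.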 Calls of active or inactive are those of the source. Cut-off read from the data, not from the text of the source: active = GI50 up to about 1.1 µM and inactive = higher.
Experiments:
Test in all cases: growth of human tumour cells (NCI), 48 h
OVCAR-4 = test system: OVCAR-4
SN12C = test system: SN12C
SNB-75 = test system: SNB-75
KM12 = test system: KM12
M14 = test system: M14
NCI-H23 = test system: NCI-H23
SF-268 = test system: SF-268
TK-10 = test system: TK-10
NCI-H226 = test system: NCI-H226
PC-3 = test system: PC-3
COLO 205 = test system: COLO 205
NCI-H460 = test system: NCI-H460
UACC-62 = test system: UACC-62
IGROV-1 = test system: IGROV-1
HT-29 = test system: HT-29
HCT-116 = test system: HCT-116
SF-295 = test system: SF-295
SK-MEL-2 = test system: SK-MEL-2
SF-539 = test system: SF-539
NCI-H522 = test system: NCI-H522

Measured: GI50

O=C(N/N=C\c1ccc([N+](=O)[O-])cc1)c1ccccc1Nc1ccccc1C(=O)N/N=C/c1ccc([N+](=O)[O-])cc1
inactive: OVCAR-4 > 100 µM | SN12C > 100 µM | SNB-75 > 100 µM | KM12 > 100 µM | M14 27.3 µM | NCI-H23 > 100 µM | SF-268 > 100 µM | TK-10 > 100 µM | NCI-H226 > 100 µM | PC-3 > 100 µM | COLO 205 > 100 µM | NCI-H460 > 100 µM | UACC-62 > 100 µM | IGROV-1 > 100 µM | HT-29 > 100 µM | HCT-116 > 100 µM | SF-295 > 100 µM | SK-MEL-2 > 100 µM

O=c1c2ccccc2nc2[nH][nH]c(=S)n12
inactive: SN12C > 100 µM | SNB-75 48.4 µM | KM12 > 100 µM | M14 > 100 µM | NCI-H23 > 100 µM | SF-539 > 100 µM | SF-268 > 100 µM | TK-10 > 100 µM | NCI-H226 > 100 µM | PC-3 > 100 µM | COLO 205 > 100 µM | NCI-H460 > 100 µM | UACC-62 > 100 µM | IGROV-1 > 100 µM | HT-29 > 100 µM | HCT-116 > 100 µM | SF-295 > 100 µM | SK-MEL-2 > 100 µM

CC(=O)ON(OC(C)=O)c1ccc(C)cc1
inactive: OVCAR-4 > 100 µM | SNB-75 > 100 µM | KM12 > 100 µM | M14 > 100 µM | NCI-H23 > 100 µM | SF-268 > 100 µM | TK-10 > 100 µM | PC-3 > 100 µM | COLO 205 > 100 µM | NCI-H460 > 100 µM | UACC-62 > 100 µM | IGROV-1 > 100 µM | HT-29 > 100 µM | NCI-H522 > 100 µM | HCT-116 > 100 µM | SF-295 > 100 µM | SK-MEL-2 > 100 µM

Cc1ccc(N(C(=O)Nc2ccc(F)c(Cl)c2)C2=NCC(C)S2)cc1 (stereo not given)
inactive: OVCAR-4 38.7 µM | SN12C 67 µM | SNB-75 17.9 µM | KM12 42 µM | NCI-H23 28.6 µM | SF-539 76.9 µM | SF-268 27.8 µM | TK-10 29.7 µM | PC-3 46.7 µM | COLO 205 72.4 µM | NCI-H460 45.1 µM | IGROV-1 > 100 µM | HT-29 36 µM | HCT-116 38.6 µM | SF-295 49.3 µM | SK-MEL-2 61.5 µM

COC(=O)/C=c1/c2ccccc2n2c1c1ccccc1[n+]2C
inactive: OVCAR-4 4.11 µM | SN12C 3.65 µM | SNB-75 3.69 µM | KM12 2.71 µM | M14 3.99 µM | NCI-H23 3.29 µM | SF-539 3.82 µM | SF-268 5.38 µM | TK-10 2.67 µM | NCI-H226 5.52 µM | PC-3 2.81 µM | COLO 205 1.26 µM | NCI-H460 3.37 µM | UACC-62 6.73 µM | IGROV-1 3.56 µM | HT-29 3.79 µM | HCT-116 3.31 µM | SF-295 2.69 µM | SK-MEL-2 4.08 µM

c1ccc(C2=NN(c3ccccc3)C3(S2)SC(c2ccccc2)(c2ccccc2)c2ccccc23)cc1 (stereo not given)
inactive: OVCAR-4 > 100 µM | SN12C > 100 µM | SNB-75 > 100 µM | KM12 > 100 µM | M14 > 100 µM | NCI-H23 > 100 µM | SF-539 > 100 µM | SF-268 > 100 µM | TK-10 > 100 µM | NCI-H226 > 100 µM | COLO 205 > 100 µM | NCI-H460 > 100 µM | UACC-62 > 100 µM | IGROV-1 > 100 µM | HT-29 > 100 µM | NCI-H522 > 100 µM | HCT-116 > 100 µM | SF-295 > 100 µM | SK-MEL-2 > 100 µM

Cc1nc2c3c(ncn2n1)Oc1c(c(-c2ccccc2)nn1-c1ccccc1)C3c1ccc(Cl)cc1 (stereo not given)
inactive: OVCAR-4 22.1 µM | SN12C > 100 µM | SNB-75 39.6 µM | KM12 > 100 µM | M14 79.3 µM | NCI-H23 > 100 µM | SF-539 22.3 µM | SF-268 47.2 µM | TK-10 39.4 µM | NCI-H226 > 100 µM | PC-3 > 100 µM | COLO 205 > 100 µM | NCI-H460 > 100 µM | UACC-62 53.6 µM | IGROV-1 > 100 µM | HT-29 > 100 µM | HCT-116 > 100 µM | SF-295 50.8 µM | SK-MEL-2 > 100 µM

COC1OC(Cn2cc([N+](=O)[O-])nc2C)C(O)C(O)C1O (stereo not given)
inactive: OVCAR-4 > 100 µM | KM12 > 100 µM | M14 > 100 µM | NCI-H23 > 100 µM | PC-3 > 100 µM | COLO 205 > 100 µM | NCI-H460 > 100 µM | UACC-62 > 100 µM | IGROV-1 > 100 µM | HT-29 > 100 µM | NCI-H522 > 100 µM | HCT-116 > 100 µM | SF-295 > 100 µM | SK-MEL-2 > 100 µM

Cc1nc2c(o1)C(=O)c1ccccc1/C2=N/c1ccccn1
inactive: OVCAR-4 15 µM | SN12C 24.9 µM | SNB-75 4.57 µM | KM12 21.7 µM | M14 18.6 µM | NCI-H23 11.5 µM | SF-539 18.2 µM | SF-268 24.2 µM | TK-10 > 100 µM | PC-3 30.8 µM | COLO 205 35.6 µM | NCI-H460 14.6 µM | UACC-62 20 µM | IGROV-1 22.6 µM | HT-29 18.8 µM | NCI-H522 19 µM | HCT-116 20.4 µM | SF-295 > 100 µM | SK-MEL-2 18.8 µM

COc1cc2c(cc1OC)C(=O)/C(=C/c1ccc([N+](=O)[O-])cc1)CC2
inactive: OVCAR-4 > 10 µM | SN12C > 10 µM | KM12 > 10 µM | M14 > 10 µM | NCI-H23 > 10 µM | SF-539 > 10 µM | SF-268 > 10 µM | TK-10 > 10 µM | NCI-H226 > 10 µM | PC-3 > 10 µM | COLO 205 > 10 µM | NCI-H460 > 10 µM | UACC-62 > 10 µM | IGROV-1 > 10 µM | HT-29 > 10 µM | HCT-116 > 10 µM | SF-295 > 10 µM | SK-MEL-2 > 10 µM

CCN(CC)CCn1c2cc3c(cc2c(=O)c2cccnc21)OCCO3
inactive: OVCAR-4 > 10 µM | SN12C 9.71 µM | SNB-75 > 10 µM | KM12 > 10 µM | M14 > 10 µM | NCI-H23 > 10 µM | SF-539 > 10 µM | SF-268 > 10 µM | TK-10 > 10 µM | PC-3 > 10 µM | COLO 205 > 10 µM | UACC-62 > 10 µM | IGROV-1 > 10 µM | HT-29 > 10 µM | NCI-H522 > 10 µM | HCT-116 4.72 µM | SF-295 > 10 µM

COC(=O)n1c(C)c(C=O)c2ccc(OC)cc21
inactive: OVCAR-4 > 100 µM | SN12C 55.6 µM | SNB-75 31.3 µM | KM12 36.4 µM | M14 36.3 µM | NCI-H23 28.6 µM | SF-539 21.9 µM | SF-268 > 10 µM | TK-10 22.8 µM | PC-3 31.9 µM | COLO 205 46.9 µM | NCI-H460 47.8 µM | UACC-62 21 µM | IGROV-1 38.6 µM | HT-29 33.3 µM | NCI-H522 38.5 µM | HCT-116 34.8 µM | SF-295 24.9 µM | SK-MEL-2 33.2 µM

COc1c(C)c(C/C=C(\C)CCCCO)c(OC)c2ccccc12
inactive: OVCAR-4 38.5 µM | SN12C 23.4 µM | SNB-75 33 µM | KM12 23.9 µM | M14 37.2 µM | NCI-H23 29.7 µM | SF-539 52.8 µM | SF-268 44 µM | TK-10 63.8 µM | PC-3 34.4 µM | COLO 205 38.2 µM | NCI-H460 20.6 µM | UACC-62 49.2 µM | IGROV-1 65.8 µM | HT-29 20.4 µM | NCI-H522 19.1 µM | HCT-116 28.9 µM | SF-295 41.4 µM | SK-MEL-2 83.6 µM

O/N=C1\CCc2nonc2\C1=N/Nc1ccccc1
inactive: OVCAR-4 > 100 µM | SN12C > 100 µM | SNB-75 > 100 µM | KM12 > 100 µM | M14 > 100 µM | NCI-H23 > 100 µM | SF-539 > 100 µM | SF-268 > 100 µM | TK-10 > 100 µM | NCI-H226 35.6 µM | PC-3 > 100 µM | COLO 205 > 100 µM | NCI-H460 > 100 µM | UACC-62 > 100 µM | IGROV-1 > 100 µM | HT-29 > 100 µM | HCT-116 > 100 µM | SF-295 > 100 µM | SK-MEL-2 > 100 µM

O=c1c2ccccc2c(=O)n2n1-c1cccc(c1)CSSCc1cccc-2c1
inactive: OVCAR-4 > 10 µM | SN12C > 10 µM | SNB-75 > 10 µM | KM12 > 10 µM | M14 > 10 µM | NCI-H23 > 10 µM | SF-539 > 10 µM | SF-268 > 10 µM | TK-10 > 10 µM | NCI-H226 > 10 µM | COLO 205 > 10 µM | NCI-H460 > 10 µM | UACC-62 > 10 µM | IGROV-1 > 10 µM | HT-29 > 10 µM | NCI-H522 > 10 µM | HCT-116 > 10 µM | SF-295 43.4 µM | SK-MEL-2 > 10 µM

From ChEMBL document CHEMBL1201862, “PubChem BioAssay data set” (2004)
